For 30 compounds, IC50 results are on record in ChEMBL document CHEMBL5532646, “Discovery of 4-(N-dithiobenzyl piperazine)-1,8-naphthalimide as a potent multi-target antitumor agent with good efficacy, limited toxicity, and low resistance” (Eur J Med Chem, 2024).

What all share (assay type): functional, cell-based
In one experiment the test system is MGC-803. The experiment can be described thus: Antiproliferative activity against human MGC-803 cells incubated for 48 hrs by MTT assay. The note with it: MGC-803, 48 h.
In a further experiment the test system is HepG2. Nature of the experiment: Antiproliferative activity against human HepG2 cells incubated for 48 hrs by MTT assay. The settings on record: HepG2, 48 h.
The test system of a further experiment is SK-OV-3. Nature of the experiment: Antiproliferative activity against human SK-OV-3 cells incubated for 48 hrs by MTT assay. The note with it: SK-OV-3, 48 h.
A further experiment relates to T-24. Nature of the experiment: Antiproliferative activity against human T24 cells incubated for 48 hrs by MTT assay. The settings on record: T-24, 48 h.

Molecules are shown by their SMILES.

Regarding `O=C1c2cccc3c(N4CCN(C(=S)SCc5ccccc5)CC4)ccc(c23)C(=O)N1Cc1ccccc1`, the IC50 with MGC-803 stood at 38.9 µM; in the experiment with HepG2, 40.6 µM; in the experiment with SK-OV-3, 30 µM; with T-24 it was 31.7 µM.

With `CNCCN1C(=O)c2cccc3c(N4CCN(C(=O)OC(C)(C)C)CC4)ccc(c23)C1=O`, the IC50 in the experiment with MGC-803 was 8.69 µM; in the experiment on HepG2 it was 7.48 µM; in the experiment on SK-OV-3, 5.42 µM; with T-24 it was 3.88 µM.

Consider `CC(C)(C)OC(=O)N1CCN(c2ccc3c4c(cccc24)C(=O)N(Cc2ccccc2)C3=O)CC1`, for which the IC50 in the experiment on MGC-803, in the experiment with HepG2, in the experiment on SK-OV-3 and with T-24 was greater than 50 µM in each case.

Consider `O=C1c2cccc3c(N4CCN(C(=S)SCc5ccccc5)CC4)ccc(c23)C(=O)N1CCO`, for which the IC50 in the experiment on MGC-803 came to 18.5 µM; in the experiment with HepG2 it was 16.8 µM; with SK-OV-3, 14.3 µM; in the experiment with T-24, 16.4 µM.

Consider `O=C1c2cccc3c(N4CCN(C(=S)SCc5ccccc5)CC4)ccc(c23)C(=O)N1CCc1ccc(O)c(O)c1`, for which the IC50 with MGC-803 stood at 34.7 µM; in the experiment with HepG2, 31.1 µM; in the experiment with SK-OV-3 it was 35 µM; in the experiment on T-24 it was 31.2 µM.

`CNCCCN1C(=O)c2cccc3c(N4CCN(C(=O)c5ccccc5)CC4)ccc(c23)C1=O`: the IC50 in the experiment with MGC-803 worked out at 8.09 µM; in the experiment with HepG2, 4.41 µM; with SK-OV-3, 6.06 µM; in the experiment on T-24, 6.25 µM.

As to `O=C1c2cccc3c(N4CCN(C(=S)SCc5ccccc5)CC4)ccc(c23)C(=O)N1Cc1ccc(Cl)cc1`, the IC50 in the experiment with MGC-803 came to 20.5 µM; with HepG2, 25.3 µM; in the experiment with SK-OV-3 it was 28.8 µM; in the experiment on T-24, 21.1 µM.

For the compound `CN(C)CCN1C(=O)c2cccc3c(N4CCN(C(=O)OC(C)(C)C)CC4)ccc(c23)C1=O`, the IC50 with MGC-803 came out at 10.9 µM; with HepG2 it was 11.4 µM; in the experiment with SK-OV-3, 10.2 µM; in the experiment on T-24 it was 6.91 µM.

On to `O=C1c2cccc3c(N4CCN(C(=S)SCc5ccccc5)CC4)ccc(c23)C(=O)N1Nc1ccccc1`, for which the IC50 with MGC-803 is 19.4 µM; in the experiment with HepG2 it was 28.4 µM; in the experiment on SK-OV-3, 30.8 µM; with T-24 it was 22.4 µM.

For the compound `CC(C)(C)OC(=O)N1CCN(c2ccc3c4c(cccc24)C(=O)N(c2nc4ccccc4[nH]2)C3=O)CC1`, the IC50 with MGC-803, with HepG2, in the experiment on SK-OV-3 and with T-24 was greater than 50 µM throughout.

Consider `O=c1[nH]cc(F)c(=O)[nH]1` [FLUOROURACIL], for which the IC50 amounted to 25.5 µM in the experiment with HepG2 and 40.1 µM in the experiment on T-24.

Consider `O=C(c1ccccc1)N1CCN(c2ccc3c4c(cccc24)C(=O)N(Cc2ccccc2)C3=O)CC1`, for which the IC50 is 23.5 µM in the experiment on MGC-803, 26.8 µM with HepG2, 22.4 µM in the experiment with SK-OV-3 and 17.7 µM in the experiment with T-24.

Turning to `O=C(c1ccccc1)N1CCN(c2ccc3c4c(cccc24)C(=O)N(CCc2ccc(O)c(O)c2)C3=O)CC1`, the IC50 with MGC-803 came to 25.8 µM; with HepG2 it was 28.5 µM; in the experiment with SK-OV-3, 21.4 µM; in the experiment on T-24, 26.5 µM.

As to `O=C1c2cccc3c(N4CCN(C(=S)SCc5ccccc5)CC4)ccc(c23)C(=O)N1Nc1nc2ccccc2s1`, the IC50 with MGC-803 amounted to 18.5 µM; in the experiment with HepG2 it was 23.7 µM; in the experiment on SK-OV-3, 24.6 µM; in the experiment on T-24, 20.4 µM.

`CC(C)(C)OC(=O)N1CCN(c2ccc3c4c(cccc24)C(=O)N(Cc2ccc(Cl)cc2)C3=O)CC1`: the IC50 in the experiment on MGC-803 amounted to 25.3 µM; in the experiment on HepG2, 23.2 µM; with SK-OV-3, 22.6 µM; in the experiment with T-24, 21.3 µM.

`O=C(c1ccccc1)N1CCN(c2ccc3c4c(cccc24)C(=O)N(Nc2ccccc2)C3=O)CC1`: the IC50 in the experiment with MGC-803 was determined as 26.4 µM; in the experiment on HepG2 it was 21.5 µM; in the experiment with SK-OV-3, 23.3 µM; in the experiment with T-24 it was 19.3 µM.

As to `O=C(c1ccccc1)N1CCN(c2ccc3c4c(cccc24)C(=O)N(Nc2ccccn2)C3=O)CC1`, the IC50 in the experiment on MGC-803 came to 35.3 µM; in the experiment with HepG2 it was 38.5 µM; in the experiment on SK-OV-3, 29.5 µM; with T-24 it was 32.4 µM.

For the compound `CC(C)(C)OC(=O)N1CCN(c2ccc3c4c(cccc24)C(=O)N(CCc2ccc4c(c2)OCO4)C3=O)CC1`, the IC50 in the experiment with MGC-803 was found to be 5.78 µM; in the experiment with HepG2 it was 4.31 µM; in the experiment on SK-OV-3 it was 4.16 µM; in the experiment with T-24, 3.69 µM.

In the case of `O=C(c1ccccc1)N1CCN(c2ccc3c4c(cccc24)C(=O)N(CCc2ccc4c(c2)OCO4)C3=O)CC1`, the IC50 in the experiment with MGC-803 turned out to be 21.6 µM; in the experiment on HepG2, 31.5 µM; with SK-OV-3, 35.2 µM; with T-24, 24.4 µM.

Take `CC(C)(C)OC(=O)N1CCN(c2ccc3c4c(cccc24)C(=O)N(Nc2nc4ccccc4s2)C3=O)CC1`: the IC50 in the experiment with MGC-803 stood at 19.5 µM; with HepG2, 22.4 µM; in the experiment with SK-OV-3 it was 23.5 µM; with T-24, 20.3 µM.

`O=C1c2cccc3c(N4CCN(C(=S)SCc5ccccc5)CC4)ccc(c23)C(=O)N1Nc1ccccn1`: the IC50 in the experiment on MGC-803, in the experiment with HepG2, with SK-OV-3 and in the experiment with T-24 was greater than 50 µM throughout.

On to `CC(C)(C)OC(=O)N1CCN(c2ccc3c4c(cccc24)C(=O)N(CCO)C3=O)CC1`, for which the IC50 in the experiment with MGC-803 was 8.81 µM; in the experiment on HepG2, 7.62 µM; in the experiment with SK-OV-3, 9.13 µM; in the experiment on T-24, 7.41 µM.

On to `O=C(c1ccccc1)N1CCN(c2ccc3c4c(cccc24)C(=O)N(Cc2ccc(Cl)cc2)C3=O)CC1`, for which the IC50 was 43.6 µM in the experiment with MGC-803, 39.6 µM in the experiment on HepG2, 31 µM in the experiment on SK-OV-3 and 29.2 µM in the experiment with T-24.

Consider `CC(C)(C)OC(=O)N1CCN(c2ccc3c4c(cccc24)C(=O)N(Nc2ccccn2)C3=O)CC1`, for which the IC50 with MGC-803 was determined as 16.5 µM; in the experiment with HepG2, 15.3 µM; in the experiment with SK-OV-3, 17.8 µM; in the experiment on T-24, 12.4 µM.

As for `CCCCN1C(=O)c2cccc3c(N4CCN(C(=S)SCc5ccccc5)CC4)ccc(c23)C1=O`, the IC50 in the experiment on MGC-803 was found to be 26.1 µM; with HepG2, 29.7 µM; with SK-OV-3 it was 25.3 µM; in the experiment on T-24, 22.6 µM.

On to `CNCCCN1C(=O)c2cccc3c(N4CCN(C(=O)OC(C)(C)C)CC4)ccc(c23)C1=O`, for which the IC50 in the experiment on MGC-803 came to 17.4 µM; in the experiment with HepG2, 9.75 µM; in the experiment on SK-OV-3, 13.1 µM; with T-24, 8.45 µM.

In the case of `CC(C)(C)OC(=O)N1CCN(c2ccc3c4c(cccc24)C(=O)N(CCc2ccc(O)c(O)c2)C3=O)CC1`, the IC50 with MGC-803 is 32.4 µM; with HepG2, 30.5 µM; in the experiment with SK-OV-3, 26.4 µM; in the experiment on T-24, 25.1 µM.

`CCCCN1C(=O)c2cccc3c(N4CCN(C(=O)OC(C)(C)C)CC4)ccc(c23)C1=O`: the IC50 in the experiment on MGC-803, in the experiment with HepG2, in the experiment with SK-OV-3 and in the experiment on T-24 was greater than 50 µM in each case.

For the compound `O=C1c2cccc3c(N4CCN(C(=S)SCc5ccccc5)CC4)ccc(c23)C(=O)N1CCc1ccc2c(c1)OCO2`, the IC50 amounted to 12.1 µM in the experiment on MGC-803, 11.8 µM with HepG2, 10.5 µM in the experiment on SK-OV-3 and 14.6 µM with T-24.

With `O=C(c1ccccc1)N1CCN(c2ccc3c4c(cccc24)C(=O)N(CCO)C3=O)CC1`, the IC50 turned out to be 19.5 µM in the experiment with MGC-803, 17.4 µM in the experiment on HepG2, 16.4 µM with SK-OV-3 and 20.4 µM with T-24.
